According to patent US20210300924A1, “5-[6-[[3-(4,5,6,7-TETRAHYDROPYRAZOLO[4,3-C]PYRIDIN-1-YL)AZETIDIN-1-YL]METHYL]MORPHOLIN-4-YL]QUINOLINE-8-CARBONITRILE DERIVATIVES AND SIMILAR COMPOUNDS AS TLR7-9 ANTAGONISTS FOR TREATING SYSTEMIC LUPUS ERYTHEMATOSUS” (Hoffmann-La Roche Inc., priority 2018, published 2021):
Marks after values point to notes of the source that are not given here.

Experiment: Human microsome stability assay
Type: in vitro ADME
Conditions: 1 μM test compound, 0.5 mg/mL liver microsomal protein, 37° C., up to 30 minutes; 6.2 = detection limit
Experimental: Human Microsome Stability Assay
The human microsomal stability assay is used for early assessment of metabolic stability of a test compound in human liver microsomes.
Human liver microsomes (Cat. NO.: 452117, Corning, USA; Cat. NO.:H2610, Xenotech, USA) were preincubated with test compound for 10 minutes at 37° C. in 100 mM potassium phosphate buffer, pH 7.4. The reactions were initiated by adding NADPH regenerating system. The final incubation mixtures contained 1 μM test compound, 0.5 mg/mL liver microsomal protein, 1 mM MgCl2, 1 mM NADP, 1 unit/mL isocitric dehydrogenase and 6 mM isocitric acid in 100 mM potassium phosphate buffer, pH 7.4. After incubation times of 0, 3, 6, 9, 15 and 30 minutes at 37° C., 300 μL of cold acetonitrile (including internal standard) was added to 100 μL incubation mixture to terminate the reaction. Following precipitation and centrifugation, the amount of compound remaining in the samples were determined by LC-MS/MS. Controls of no NADPH regenerating system at zero and 30 minutes were also prepared and analyzed.

Compound	Clearance of Human microsome
C[C@@H]1CN(c2ccc(C#N)c3ncccc23)C[C@H](CN2CC(n3ncc4c3CCN[C@H]4C)C2)O1 [Example 22, 5-[(2R,6S)-2-methyl-6-[[3-[(4S)-4-methyl-4,5,6,7-tetrahydropyrazolo[4,3-c]pyridin-1-yl]azetidin-1-yl]methyl]morpholin-4-yl]quinoline-8-carbonitrile]	6.2 mL/min/kg
C[C@@H]1Cc2nn(C3CN(C[C@H]4CN(c5ccc(C#N)c6ncccc56)C[C@@H](C)O4)C3)cc2CN1 [Example 17, 5-[(2R,6S)-2-methyl-6-[[3-[(6R)-6-methyl-4,5,6,7-tetrahydropyrazolo[4,3-c]pyridin-2-yl]azetidin-1-yl]methyl]morpholin-4-yl]quinoline-8-carbonitrile]	6.2 mL/min/kg
C[C@@H]1CN(c2ccc(C#N)c3ncccc23)C[C@H](CN2CC(n3cc4c(n3)C[C@H](C)NC4)C2)O1 [Example 19, 5-[(2R,6S)-2-methyl-6-[[3-[(6S)-6-methyl-4,5,6,7-tetrahydropyrazolo[4,3-c]pyridin-2-yl]azetidin-1-yl]methyl]morpholin-4-yl]quinoline-8-carbonitrile]	6.2 mL/min/kg
C[C@@H]1CN(c2ccc(C#N)c3ncccc23)C[C@H](CN2CC(n3cc4c(n3)CCNC4)C2)O1 [Example 2, 5-[(2R,6S)-2-methyl-6-[[3-(4,5,6,7-tetrahydropyrazolo[4,3-c]pyridin-2-yl)azetidin-1-yl]methyl]morpholin-4-yl]quinoline-8-carbonitrile]	6.2 mL/min/kg
Cc1c2c(nn1C1CN(C[C@H]3CN(c4ccc(C#N)c5ncccc45)C[C@@H](C)O3)C1)CNCC2 [Example 43, 5-[(2R,6S)-2-methyl-6-[[3-(3-methyl-4,5,6,7-tetrahydropyrazolo[3,4-c]pyridin-2-yl)azetidin-1-yl]methyl]morpholin-4-yl]quinoline-8-carbonitrile]	6.5 mL/min/kg
C[C@@H]1CN(c2ccc(C#N)c3ncccc23)C[C@H](CN2CC(n3ncc4c3CCN[C@@H]4C)C2)O1 [Example 20, 5-[(2R,6S)-2-methyl-6-[[3-[(4R)-4-methyl-4,5,6,7-tetrahydropyrazolo[4,3-c]pyridin-1-yl]azetidin-1-yl]methyl]morpholin-4-yl]quinoline-8-carbonitrile]	6.2 mL/min/kg
C[C@@H]1CN(c2ccc(C#N)c3ncccc23)C[C@H](CN2CC(n3cc4c(n3)CNCC4)C2)O1 [Example 4, 5-[(2R,6S)-2-methyl-6-[[3-(4,5,6,7-tetrahydropyrazolo[3,4-c]pyridin-2-yl)azetidin-1-yl]methyl]morpholin-4-yl]quinoline-8-carbonitrile]	6.2 mL/min/kg
C[C@@H]1Cc2cnn(C3CN(C[C@H]4CN(c5ccc(C#N)c6ncccc56)C[C@@H](C)O4)C3)c2CN1 (single isomer, unassigned) [Example 28]	6.2 mL/min/kg
Cc1nn(C2CN(C[C@H]3CN(c4ccc(C#N)c5ncccc45)C[C@@H](C)O3)C2)c2c1CCNC2 [Example 42, 5-[(2R,6S)-2-methyl-6-[[3-(3-methyl-4,5,6,7-tetrahydropyrazolo[3,4-c]pyridin-1-yl)azetidin-1-yl]methyl]morpholin-4-yl]quinoline-8-carbonitrile]	7.1 mL/min/kg
C[C@@H]1CN(c2ccc(C#N)c3ncccc23)C[C@H](CN2CC(n3ncc4c3C[C@H](C)NC4)C2)O1 [Example 18, 5-[(2R,6S)-2-methyl-6-[[3-[(6S)-6-methyl-4,5,6,7-tetrahydropyrazolo[4,3-c]pyridin-1-yl]azetidin-1-yl]methyl]morpholin-4-yl]quinoline-8-carbonitrile]	7.0 mL/min/kg
C[C@@H]1Cc2cn(C3CN(C[C@H]4CN(c5ccc(C#N)c6ncccc56)C[C@@H](C)O4)C3)nc2CN1 (single isomer, unassigned) [Example 30]	6.2 mL/min/kg
C[C@@H]1CN(c2ccc(C#N)c3ncccc23)C[C@H](CN2CC(n3cc4c(n3)CN[C@@H](C)C4)C2)O1 (single isomer, unassigned) [Example 29]	6.6 mL/min/kg
C[C@@H]1CN(c2ccc(C#N)c3ncccc23)C[C@H](CN2CC(n3cc4c(n3)[C@H](C)NCC4)C2)O1 (single isomer, unassigned) [Example 34]	6.4 mL/min/kg
C[C@@H]1CN(c2ccc(C#N)c3ncccc23)C[C@H](CN2CC(n3cc4c(n3)CCN[C@H]4C)C2)O1 [Example 23, 5-[(2R,6S)-2-methyl-6-[[3-[(4S)-4-methyl-4,5,6,7-tetrahydropyrazolo[4,3-c]pyridin-2-yl]azetidin-1-yl]methyl]morpholin-4-yl]quinoline-8-carbonitrile]	6.2 mL/min/kg
C[C@@H]1CN(c2ccc(C#N)c3ncccc23)C[C@H](CN2CCC(n3ncc4c3CCNC4)CC2)O1 [Example 35, 5-[(2R,6S)-2-methyl-6-[[4-(4,5,6,7-tetrahydropyrazolo[4,3-c]pyridin-1-yl)-1-piperidyl]methyl]morpholin-4-yl]quinoline-8-carbonitrile]	7.7 mL/min/kg
C[C@@H]1CN(c2ccc(C#N)c3ncccc23)C[C@H](CN2CCC(n3cc4c(n3)CCNC4)CC2)O1 [Example 36, 5-[(2R,6S)-2-methyl-6-[[4-(4,5,6,7-tetrahydropyrazolo[4,3-c]pyridin-2-yl)-1-piperidyl]methyl]morpholin-4-yl]quinoline-8-carbonitrile]	6.2 mL/min/kg
C[C@@H]1CN(c2ccc(C#N)c3ncccc23)C[C@H](CN2CC(n3cc4c(n3)CCN[C@@H]4C)C2)O1 [Example 21, 5-[(2R,6S)-2-methyl-6-[[3-[(4R)-4-methyl-4,5,6,7-tetrahydropyrazolo[4,3-c]pyridin-2-yl]azetidin-1-yl]methyl]morpholin-4-yl]quinoline-8-carbonitrile]	6.2 mL/min/kg
C[C@@H]1CN(c2ccc(C#N)c3ncccc23)C[C@H](CN2CC(n3cc4c(n3)CN(C)CC4)C2)O1 [Example 5, 5-[(2R,6S)-2-methyl-6-[[3-(6-methyl-5,7-dihydro-4H-pyrazolo[3,4-c]pyridin-2-yl)azetidin-1-yl]methyl]morpholin-4-yl]quinoline-8-carbonitrile]	6.2 mL/min/kg
C[C@@H]1CN(c2ccc(C#N)c3ncccc23)C[C@H](CN2CC(n3ncc4c3CCNC4)C2)O1 [Example 1, 5-[(2R,6S)-2-methyl-6-[[3-(4,5,6,7-tetrahydropyrazolo[4,3-c]pyridin-1-yl)azetidin-1-yl]methyl]morpholin-4-yl]quinoline-8-carbonitrile]	6.2* mL/min/kg
C[C@@H]1CN(c2ccc(C#N)c3ncccc23)C[C@H](CN2CC(n3cc4c(n3)CNC4)C2)O1 [Example 11, 5-[(2S,6R)-2-[[3-(5,6-dihydro-4H-pyrrolo[3,4-c]pyrazol-2-yl)azetidin-1-yl]methyl]-6-methyl-morpholin-4-yl]quinoline-8-carbonitrile]	6.2 mL/min/kg
C[C@@H]1Cc2c(cnn2C2CN(C[C@H]3CN(c4ccc(C#N)c5ncccc45)C[C@@H](C)O3)C2)CN1 [Example 16, 5-[(2R,6S)-2-methyl-6-[[3-[(6R)-6-methyl-4,5,6,7-tetrahydropyrazolo[4,3-c]pyridin-1-yl]azetidin-1-yl]methyl]morpholin-4-yl]quinoline-8-carbonitrile]	7.2 mL/min/kg
